Measurements reported in EP1338283A1, “Use of neoruscine to treat alopecia” (Pierre Fabre Dermo-Cosmetique, priority 2002, dated 2003).

Assays:
VEGF = VEGF assay (ELISA) in supernatants of dermal papilla cell cultures; assay type: cell-based; details: néoruscine 50 µg/ml, 24 h treatment, dermal papilla cells, ELISA on supernatants
Method: La suspension de cellules de la papille dermique (10^6 cellules/2 ml) dans le DMEM 10 % SVF est distribuée dans les plaques 6 puits (10^6 cellules/puits) et incubée pendant 18 heures à 37°C dans une atmosphère à 5 % CO2. Les cellules de la papille folliculaire sont alors rincées avec du PBS pour éliminer les cellules non adhérentes puis exposées pendant 24 heures aux produits à tester inclus dans du DMEM sans SVF (qui pourrait interférer dans le dosage). Pour chaque produit testé, 3 puits sont réalisés.
L'extrait de Ruscus et la néoruscine purifiée sont testés en culture.
Après 24 heures de traitement, les surnageants sont récupérés, centrifugés puis conservés à -80°C avant leur utilisation ultérieure pour le dosage du VEGF.
La production du VEGF dans les surnageants est mesurée par Kit Elisa (R&D Biosystems). Les résultats sont exprimés en picogrammes de VEGF par 10^6 cellules et en pourcentages d'activité. Dans ce test la néoruscine à 50 µg/ml stimule la production du VEGF de 329 %.

gène du VEGF = assay: VEGF gene expression (RT-PCR) in dermal papilla cells; assay type: cell-based, humaine; details: néoruscine 50 µg/ml, 3 h incubation
Method: La suspension de cellules de la papille folliculaire (10^6 cellules par boîte de 25 cm^2) dans le milieu DMEM est distribuée dans les boîtes de culture puis incubés pendant 12 heures à 37°C dans une atmosphère à 5 % de CO2. Les CPD sont ensuite rincées avec du PBS pour éliminer les cellules non adhérentes.
Pour chaque lot, les cellules sont pré-incubées pendant 3 heures avec les produits à tester préparés dans du DMEM. Les cellules sont ensuite rincées deux fois au PBS.
Après rinçage au PBS, les boîtes de culture sont déposées sur de la glace. Les cellules sont traitées avec la solution d'extraction d'ARN, RNAβTM (1 ml/boîte).
Les lysats cellulaires sont ensuite récupérés, centrifugés après avoir ajouté du chloroforme. Trois phases sont alors observables • inférieure contenant les débris cellulaires - interface contenant l'ADN • […] supérieure avec l'ARN
Les surnageants sont prélevés, les ARN sont précipités avec de l'isopropanol. […]
La quantité d'ARN ainsi que la pureté sont déterminées par spectrophotométrie (Chomczynski P., Sacchi N. Anal. Biochem. 1987; 162: […]). […]
Une caméra UV permet de saisir l'image du gel et la quantification du volume et de l'intensité des bandes correspondant à l'ADNc du VEGF se fait à l'aide d'un logiciel d'analyse d'image.

[1] = system: gène cytochrome P450 aromatase; assay: Cytochrome P450 aromatase gene expression (RT-PCR) in dermal papilla cells; assay type: cell-based, humaine; details: néoruscine 5 µg/ml, 3 h exposure, human dermal papilla cells
Method: Nous avons évalué, dans le cadre de cet exemple, l'activité de la néoruscine sur la transcription du gène VEGF par les cellules de la papille dermique humaine en culture.
Les cellules de la papille dermique sont ensemencées à 10^6 cellules par boîte dans du DMEM à 10 % de SVF et 1 % de Pénicilline/Streptomycine pendant 24 heures à 37°C dans une atmosphère à 5 % CO2. Les cellules de la papille folliculaire sont alors rincées avec du PBS pour éliminer les cellules non-adhérentes puis exposées aux produits à tester dans du DMEM sans SVF (qui pourrait interférer dans le dosage) durant 3 heures.
Les principes actifs ont été testés en culture à des concentrations non cytotoxiques. Une boîte de culture est réalisée pour chaque lot.
Après rinçage au PBS, les boîtes de culture sont déposées sur de la glace. Les cellules sont traitées avec la solution d'extraction d'ARN, RNA βTM (1 ml/boîte). […]
Les surnageants sont prélevés, les ARN sont précipités avec de l'isopropanol. […] La quantité d'ARN ainsi que la pureté sont déterminées par spectrophotométrie.
L'ARN total (1 µg) est rétro-transcrit en ADN complémentaire une heure à 48°C avec le kit Access RT-PCR system (Promega). […] Une caméra UV permet de saisir l'image du gel et la quantification du volume et de l'intensité des bandes correspondant à l'ADNc et du cytochrome P450 aromatase se fait à l'aide d'un logiciel d'analyse d'image. […]

follicule pileux humain = assay: Growth of human hair follicle ex vivo; assay type: cell-based; details: 5 days of treatment, activity versus controls
Method: Les follicules pileux sont issus de scalp humain provenant du service de chirurgie plastique des hôpitaux ou des cliniques. La peau est rasée puis lavée dans 10 bains successifs de 10 min de PBS supplémentés d'antibiotiques (pénicilline 100 unités/ml et streptomycine 100 µg/ml). Les follicules en phase anagène reconnaissables car très vascularisés sont ensuite isolés de la peau sous la loupe binoculaire et débarrassés de la graisse. Ils sont ensuite incubés à 37°C dans des boîtes de culture dans du milieu de culture DMEM contenant le produit à tester. Le milieu de culture des follicules ne contient pas de sérum. Ce milieu est composé de 10µg/ml d'insuline, de 10 µg/ml de transferrine, de 10 µg/ml d'hydrocortisone, de 1% d'un mélange de pénicilline (100 uités /ml)-streptomycine (100µg/ml), de 2,5 µg/ml de fungizone et de la L-glutamine à 1mM.
Les follicules sont mis en présence de différentes concentrations de néoruscine (50, 100 et 300 µg/ml) (10 follicules par traitement). Les témoins sont cultivés dans du milieu sans produit.
La croissance de la tige des follicules pileux est mesurée à l'aide de papier millimétré sous loupe binoculaire au jour 0 et tous les jours pendant 5 jours. Une caméra numérique permet de saisir les images de follicules pileux et de calculer avec précision leur taux de croissance. Le pourcentage de croissance = (mesure Tx - mesure T0)/ mesure T0). [formula] […]

néoruscine
stimule la production du VEGF (VEGF): 329% | stimulation de la transcription du gène du VEGF (gène du VEGF): 24,5% | stimule la transcription du gène cytochrome P450 aromatase [1]: 81% | croissance des follicules pileux humains, activité du traitement (follicule pileux humain; néoruscine 100 µg/ml): 77,08% | croissance des follicules pileux humains, activité du traitement (follicule pileux humain; néoruscine 300 µg/ml): 118,09%
